From BindingDB's records for patent US11149040 (Amgen, 2021) come the findings set out here.

SMILES strings stand for the structures.

This assay addresses T1, Apelin receptor (Homo sapiens, UniProt P35414).
T1 sequence (P35414 whole entry): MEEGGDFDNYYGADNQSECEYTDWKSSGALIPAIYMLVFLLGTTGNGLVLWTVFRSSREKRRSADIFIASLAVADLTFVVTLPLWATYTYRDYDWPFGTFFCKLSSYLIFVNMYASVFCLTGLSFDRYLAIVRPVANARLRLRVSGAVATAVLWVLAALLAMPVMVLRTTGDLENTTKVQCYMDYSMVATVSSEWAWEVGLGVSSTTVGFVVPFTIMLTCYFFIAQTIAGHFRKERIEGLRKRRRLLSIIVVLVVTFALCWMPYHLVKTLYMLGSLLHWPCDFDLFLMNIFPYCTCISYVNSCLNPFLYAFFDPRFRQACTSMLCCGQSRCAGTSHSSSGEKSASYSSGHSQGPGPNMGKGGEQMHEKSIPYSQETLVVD
As to the kind of experiment: [35S]GTPgammaS Binding. How it is done: The human APJ receptor was cloned by polymerase chain reaction and the gene encoding the receptor was subcloned in pFLAG-CMV -3 expression vector (Sigma, Saint Louis, Mo. USA) in-house at Amgen. A GTPγS binding assay was performed on membranes prepared from CHO cells stably expressing human APJ receptor. The optimum experimental conditions for the concentrations of GDP, MgCl2, and NaCl in the assay buffer were initially determined. The assay was performed in 9 μL assay buffer [20 mM HEPES, pH 7.5, 5 mM MgCl2, 100 mM NaCl and 0.1% (w/v) BSA], 1 μL of diluted test compound (starting with 0.75 mM, 2-fold serial dilution with DMSO, total 22 points), 10 μL of 18 μM GDP (final concentration of 3 μM GDP), 20 μL of […] membrane protein expressing human APJ receptor captured with WGA PS beads (final concentration of 5 μg per well), and 20 μL of 0.3 nM [35S]GTPγS (final concentration is 0.1 nM [35S]GTPγS)(Perkin Elmer Life and Analytical Sciences, Waltham USA). […] Incubation was at RT for 90 min and the microplate was read using a ViewLux ultra HTS Microplate Imager (PerkinElmer, Inc.). All the results presented are means of several independent experiments and analyzed by non-linear regression methods using the commercially available program Prism (GraphPad, San Diego, Calif.) providing the EC50 values detailed in Table 13.
In general terms: Binding of GTPγS marks nucleotide exchange on a G protein.

Broadly, the EC50 is the midpoint of the concentration-response curve. Read a high EC50 as weaker potency. As for `Cc1cnc([C@H](OC(C)C)[C@H](C)S(=O)(=O)Nc2nnc3n2-c2c(F)cccc2/C=C\CC3)nc1` (single isomer, unassigned) [US11149040, Example 49.0], the EC50 was determined as 98 nM.
